In PubChem BioAssay (NCI):
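Dose response: 5 concentrations. Exposure: 48 h. Format: 96-well plates. Endpoint: linear interpolation; highest concentration if not reached. TGI denotes the concentration required for complete inhibition of growth.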

Tests used:
Experiment in all cases: DTP human tumour cell line panel, 48 h
[1] = system: MCF7 breast
[2] = system: SF-268 CNS
[3] = system: NCI-H460 lung
[4] = system: DU-145 prostate
[5] = system: PC-3 prostate
[6] = system: HL-60(TB) leukemia
[7] = system: RPMI-8226 leukemia
[8] = system: T-47D breast
[9] = system: SK-MEL-5 melanoma
[10] = system: SK-OV-3 ovarian
[11] = system: SK-MEL-2 melanoma
[12] = system: NCI-H23 lung
[13] = system: MDA-N
[14] = system: IGROV1 ovarian
[15] = system: SNB-19 CNS
[16] = system: SF-539 CNS
[17] = system: CAKI-1 renal
[18] = system: HCC-2998 colon
[19] = system: HCT-15 colon
[20] = system: SF-295 CNS
[21] = system: COLO 205 colon
[22] = system: BT-549 breast
[23] = system: UO-31 renal
[24] = system: M14 melanoma
[25] = system: MALME-3M melanoma
[26] = system: A549 NSCLC
[27] = system: EKVX NSCLC
[28] = system: SR leukemia
[29] = system: OVCAR-4 ovarian
[30] = system: HCT-116 colon
[31] = system: OVCAR-8 ovarian
[32] = system: MOLT-4 leukemia
[33] = system: LOX IMVI melanoma
[34] = system: UACC-257 melanoma
[35] = system: UACC-62 melanoma
[36] = system: CCRF-CEM leukemia
[37] = system: U251 CNS
[38] = system: NCI-H522 lung
[39] = system: OVCAR-5 ovarian
[40] = system: HT29 colon
[41] = system: 786-0 renal
[42] = system: ACHN renal
[43] = system: A498 renal
[44] = system: HOP-62 NSCLC
[45] = system: MDA-MB-435
[46] = system: HS 578T breast
[47] = system: SK-MEL-28 melanoma
[48] = system: SW-620 colon
[49] = system: K-562 leukemia
[50] = system: OVCAR-3 ovarian
[51] = system: KM12 colon
[52] = system: NCI/ADR-RES ovarian
[53] = system: TK-10 renal
[54] = system: MDA-MB-231 breast
[55] = system: SNB-75 CNS
[56] = system: SN12C renal
[57] = system: NCI-H226 lung
[58] = system: HOP-92 NSCLC
[59] = system: RXF 393 renal

Nc1ccc(C(=O)c2cn(CCN3CCOCC3)c3ccccc23)c2ccccc12
TGI [1]: > 100 µM | TGI [2]: > 100 µM | TGI [3]: > 100 µM | TGI [4]: > 100 µM | TGI [5]: > 100 µM | TGI [6]: 44.8 µM | TGI [7]: > 100 µM | TGI [8]: 72.8 µM | TGI [9]: 51.5 µM | TGI [10]: > 100 µM | TGI [11]: > 100 µM | TGI [12]: 68 µM | TGI [13]: > 100 µM | TGI [14]: 52.3 µM | TGI [15]: > 100 µM | TGI [16]: > 100 µM | TGI [17]: > 100 µM | TGI [18]: > 100 µM | TGI [19]: 43.3 µM | TGI [20]: > 100 µM | TGI [21]: 60.6 µM | TGI [22]: 58.3 µM | TGI [23]: > 100 µM | TGI [24]: > 100 µM | TGI [25]: > 100 µM | TGI [26]: > 100 µM | TGI [27]: 90.8 µM | TGI [28]: 65.6 µM | TGI [29]: > 100 µM | TGI [30]: > 100 µM | TGI [31]: 52.7 µM | TGI [32]: 52.5 µM | TGI [33]: 73.1 µM | TGI [34]: > 100 µM | TGI [35]: > 100 µM | TGI [36]: 45.3 µM | TGI [37]: > 100 µM | TGI [38]: > 100 µM | TGI [39]: > 100 µM | TGI [40]: 55.9 µM | TGI [41]: > 100 µM | TGI [42]: > 100 µM | TGI [43]: > 100 µM | TGI [44]: > 100 µM | TGI [45]: 83 µM | TGI [46]: > 100 µM | TGI [47]: > 100 µM | TGI [48]: > 100 µM | TGI [49]: 56.7 µM | TGI [50]: > 100 µM | TGI [51]: > 100 µM | TGI [52]: 65.3 µM

CC1(C)C2CC(=O)C1(C)C(OCc1ccccc1)C2 (stereo not drawn)
TGI [1]: > 100 µM | TGI [2]: > 100 µM | TGI [53]: > 100 µM | TGI [3]: > 100 µM | TGI [4]: > 100 µM | TGI [54]: > 100 µM | TGI [5]: > 100 µM | TGI [6]: 62.3 µM | TGI [7]: > 100 µM | TGI [55]: > 100 µM | TGI [8]: > 100 µM | TGI [9]: > 100 µM | TGI [10]: > 100 µM | TGI [56]: > 100 µM | TGI [11]: > 100 µM | TGI [12]: > 100 µM | TGI [13]: > 100 µM | TGI [14]: > 100 µM | TGI [15]: > 100 µM | TGI [16]: > 100 µM | TGI [17]: > 100 µM | TGI [18]: > 100 µM | TGI [19]: > 100 µM | TGI [20]: > 100 µM | TGI [21]: 90.6 µM | TGI [22]: > 100 µM | TGI [23]: > 100 µM | TGI [24]: 71.3 µM | TGI [25]: > 100 µM | TGI [26]: > 100 µM | TGI [27]: > 100 µM | TGI [28]: 81.1 µM | TGI [30]: 66.1 µM | TGI [31]: > 100 µM | TGI [32]: 46.6 µM | TGI [33]: 68.4 µM | TGI [34]: > 100 µM | TGI [35]: > 100 µM | TGI [57]: > 100 µM | TGI [36]: 92.8 µM | TGI [37]: > 100 µM | TGI [38]: 52.5 µM | TGI [39]: > 100 µM | TGI [40]: > 100 µM | TGI [41]: > 100 µM | TGI [42]: > 100 µM | TGI [43]: > 100 µM | TGI [44]: > 100 µM | TGI [45]: > 100 µM | TGI [46]: 77 µM | TGI [47]: > 100 µM | TGI [48]: 87.3 µM | TGI [49]: 77.6 µM | TGI [50]: > 100 µM | TGI [51]: > 100 µM | TGI [52]: > 100 µM

O=S(=O)(/N=C(\NO)Nc1ccc(Cl)cc1)c1cccc2nsnc12
TGI [2]: > 100 µM | TGI [53]: > 100 µM | TGI [3]: > 100 µM | TGI [4]: > 100 µM | TGI [54]: > 100 µM | TGI [5]: > 100 µM | TGI [6]: 39.1 µM | TGI [55]: > 100 µM | TGI [8]: > 100 µM | TGI [9]: 29.5 µM | TGI [10]: > 100 µM | TGI [56]: 63.1 µM | TGI [11]: 39.2 µM | TGI [12]: > 100 µM | TGI [13]: 79 µM | TGI [14]: > 100 µM | TGI [15]: > 100 µM | TGI [58]: 73.7 µM | TGI [16]: > 100 µM | TGI [17]: 70 µM | TGI [19]: > 100 µM | TGI [20]: > 100 µM | TGI [21]: > 100 µM | TGI [22]: 83.9 µM | TGI [23]: > 100 µM | TGI [24]: > 100 µM | TGI [25]: 46.3 µM | TGI [26]: > 100 µM | TGI [27]: 66 µM | TGI [29]: > 100 µM | TGI [30]: 85.4 µM | TGI [31]: > 100 µM | TGI [32]: > 100 µM | TGI [33]: 61.4 µM | TGI [34]: > 100 µM | TGI [59]: > 100 µM | TGI [35]: 53.1 µM | TGI [57]: > 100 µM | TGI [36]: 71.9 µM | TGI [37]: > 100 µM | TGI [38]: 28.9 µM | TGI [39]: 75.5 µM | TGI [40]: > 100 µM | TGI [41]: 80.7 µM | TGI [42]: > 100 µM | TGI [44]: > 100 µM | TGI [45]: > 100 µM | TGI [46]: 85.6 µM | TGI [47]: 46.6 µM | TGI [48]: > 100 µM | TGI [49]: > 100 µM | TGI [50]: 70 µM | TGI [51]: > 100 µM | TGI [52]: > 100 µM

COc1c(O)cc2c(c1O)C(=O)/C(=C/c1ccc(O)cc1)CO2
TGI [1]: > 100 µM | TGI [2]: > 100 µM | TGI [53]: 85 µM | TGI [3]: > 100 µM | TGI [4]: 78.1 µM | TGI [54]: > 100 µM | TGI [5]: > 100 µM | TGI [6]: > 100 µM | TGI [7]: 37.2 µM | TGI [55]: 57 µM | TGI [8]: 94.8 µM | TGI [9]: 59.6 µM | TGI [10]: 59.3 µM | TGI [56]: 55.5 µM | TGI [11]: > 100 µM | TGI [12]: > 100 µM | TGI [13]: > 100 µM | TGI [14]: 80.8 µM | TGI [15]: > 100 µM | TGI [58]: > 100 µM | TGI [16]: 48.9 µM | TGI [17]: 53.9 µM | TGI [19]: 38.2 µM | TGI [20]: > 100 µM | TGI [21]: 32.5 µM | TGI [22]: > 100 µM | TGI [23]: 65.1 µM | TGI [24]: 61.1 µM | TGI [25]: 96.4 µM | TGI [26]: > 100 µM | TGI [27]: 71.9 µM | TGI [28]: 40.9 µM | TGI [29]: 60.7 µM | TGI [31]: 39.6 µM | TGI [32]: > 100 µM | TGI [33]: 53.1 µM | TGI [34]: > 100 µM | TGI [59]: > 100 µM | TGI [35]: 40 µM | TGI [36]: 65.3 µM | TGI [37]: > 100 µM | TGI [38]: 33.8 µM | TGI [39]: 68.6 µM | TGI [40]: 41.1 µM | TGI [41]: 75.5 µM | TGI [42]: 48.3 µM | TGI [43]: > 100 µM | TGI [44]: 76.3 µM | TGI [45]: > 100 µM | TGI [46]: > 100 µM | TGI [47]: 35.3 µM | TGI [48]: 83.4 µM | TGI [49]: 95.2 µM | TGI [50]: 55.5 µM | TGI [51]: 34.4 µM | TGI [52]: 57 µM
